Experimental data from publication PMC11022890 (Drug Metabolism and Disposition, 2021).

Legend:
UGT1A9 = target: T1, UGT1A9 (Homo sapiens, UniProt O60656); assay: Inhibition of furosemide glucuronidation in rUGT1A9 microsomes; format: in vitro ADME
T1 sequence (O60656 26-530): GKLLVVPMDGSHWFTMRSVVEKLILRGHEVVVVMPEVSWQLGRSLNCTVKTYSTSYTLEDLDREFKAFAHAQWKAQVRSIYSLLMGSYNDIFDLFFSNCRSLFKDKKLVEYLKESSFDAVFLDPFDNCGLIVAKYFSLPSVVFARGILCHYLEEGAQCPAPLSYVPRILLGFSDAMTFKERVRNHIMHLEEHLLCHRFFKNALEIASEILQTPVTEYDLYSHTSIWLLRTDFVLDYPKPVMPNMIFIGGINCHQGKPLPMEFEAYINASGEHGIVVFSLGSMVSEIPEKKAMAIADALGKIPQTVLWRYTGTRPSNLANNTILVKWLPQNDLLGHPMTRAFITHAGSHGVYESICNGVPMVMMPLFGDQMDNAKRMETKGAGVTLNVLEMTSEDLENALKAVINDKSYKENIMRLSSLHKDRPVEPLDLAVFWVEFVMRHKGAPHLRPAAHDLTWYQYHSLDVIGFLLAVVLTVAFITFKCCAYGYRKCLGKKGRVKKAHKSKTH

Nonspecific binding [1] = format: in vitro ADME; conditions: human, incubation mixture with human liver microsomes
UGT2B10 = target: T2, UGT2B10 (Homo sapiens, UniProt P36537); assay: Screening: inhibition of nicotine glucuronidation in rUGT2B10 microsomes; format: in vitro ADME; conditions: 100 µM
T2 sequence (P36537 24-528): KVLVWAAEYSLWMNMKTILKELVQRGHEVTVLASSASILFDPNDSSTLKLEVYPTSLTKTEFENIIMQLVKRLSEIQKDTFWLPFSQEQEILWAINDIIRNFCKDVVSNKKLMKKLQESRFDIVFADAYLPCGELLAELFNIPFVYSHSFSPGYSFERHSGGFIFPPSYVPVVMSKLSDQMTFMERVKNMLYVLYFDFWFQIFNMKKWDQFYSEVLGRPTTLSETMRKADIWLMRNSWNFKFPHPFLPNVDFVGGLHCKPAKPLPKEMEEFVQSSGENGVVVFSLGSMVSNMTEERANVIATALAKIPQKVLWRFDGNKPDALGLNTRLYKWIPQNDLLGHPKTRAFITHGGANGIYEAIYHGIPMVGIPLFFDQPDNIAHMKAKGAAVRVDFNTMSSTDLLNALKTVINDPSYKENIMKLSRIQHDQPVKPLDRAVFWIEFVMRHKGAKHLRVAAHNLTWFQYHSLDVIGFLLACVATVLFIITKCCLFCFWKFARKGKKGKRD

Nonspecific binding [2] = format: in vitro ADME; conditions: human, incubation mixture with human kidney microsomes
[3] = target: T3, UGT1A9 in human kidney microsomes (Homo sapiens, UniProt O60656); assay: Inhibition of propofol glucuronidation; conditions: HKM
T3 sequence (O60656 26-530): T1 sequence (O60656 26-530)

Nonspecific binding [4] = format: in vitro ADME; conditions: human
UGT2B4 = target: T4, UGT2B4 (Homo sapiens, UniProt P06133); assay: Inhibition of codeine glucuronidation in rUGT2B4 microsomes; format: in vitro ADME
T4 sequence (P06133 24-528): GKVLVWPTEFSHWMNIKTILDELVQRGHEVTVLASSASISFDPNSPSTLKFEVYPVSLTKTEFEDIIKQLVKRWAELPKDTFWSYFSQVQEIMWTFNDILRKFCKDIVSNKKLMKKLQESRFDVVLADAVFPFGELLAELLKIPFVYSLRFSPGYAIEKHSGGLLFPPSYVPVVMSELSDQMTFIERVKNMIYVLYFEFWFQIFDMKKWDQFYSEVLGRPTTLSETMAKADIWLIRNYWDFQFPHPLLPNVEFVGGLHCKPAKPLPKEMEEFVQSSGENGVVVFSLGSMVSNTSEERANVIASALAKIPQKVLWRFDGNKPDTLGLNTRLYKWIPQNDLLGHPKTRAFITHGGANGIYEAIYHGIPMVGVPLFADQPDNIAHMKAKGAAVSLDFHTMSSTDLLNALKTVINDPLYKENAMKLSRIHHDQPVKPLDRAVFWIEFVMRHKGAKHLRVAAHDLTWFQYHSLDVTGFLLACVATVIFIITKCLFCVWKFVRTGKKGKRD

[5] = 400 mg oral dose; ref Manini et al., 2015; cited from earlier work
[6] = target: T5, UGT1A6 in human kidney microsomes (Homo sapiens, UniProt P19224); assay: Inhibition of serotonin glucuronidation; conditions: HKM
T5 sequence (P19224 27-532): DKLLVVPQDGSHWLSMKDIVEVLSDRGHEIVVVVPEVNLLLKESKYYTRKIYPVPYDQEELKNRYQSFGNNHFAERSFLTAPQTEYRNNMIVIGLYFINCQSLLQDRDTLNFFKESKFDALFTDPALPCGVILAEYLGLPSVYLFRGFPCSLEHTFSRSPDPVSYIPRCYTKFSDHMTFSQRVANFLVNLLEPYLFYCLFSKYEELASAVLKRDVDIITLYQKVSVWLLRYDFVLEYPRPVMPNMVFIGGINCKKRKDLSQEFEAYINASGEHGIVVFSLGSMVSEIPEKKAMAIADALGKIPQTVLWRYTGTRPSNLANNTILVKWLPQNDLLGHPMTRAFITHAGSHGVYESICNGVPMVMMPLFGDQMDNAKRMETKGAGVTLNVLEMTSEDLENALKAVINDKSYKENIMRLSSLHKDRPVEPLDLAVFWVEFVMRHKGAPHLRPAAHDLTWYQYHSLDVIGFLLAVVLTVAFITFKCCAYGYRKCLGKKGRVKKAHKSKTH

[7] = target: T6, UGT1A6 in human liver microsomes (Homo sapiens, UniProt P19224); assay: Inhibition of serotonin glucuronidation; conditions: HLM
T6 sequence (P19224 27-532): T5 sequence (P19224 27-532)

[8] = IC50, probe substrate furosemide
[9] = IC50,u (binding-corrected IC50), probe substrate furosemide
[10] = IC50,u (binding-corrected IC50), probe substrate propofol
[11] = IC50, probe substrate serotonin
[12] = IC50,u (binding-corrected IC50), probe substrate serotonin

Compound | IC50 (UGT1A9; [8]) [nM] | IC50 (UGT1A9; [9]) [nM] | fraction unbound (Nonspecific binding [1]) | inhibition vs control without cannabinoid (UGT2B10) [%] | fraction unbound (Nonspecific binding [2]) | IC50 ([3]; IC50, probe substrate propofol) [nM] | IC50 [3, 10] [nM] | fraction unbound (Nonspecific binding [4]) | inhibition in screening (in words) (UGT2B4; 10 or 100 µM) | average plasma level [5] [µg/L] | IC50 [6, 11] [nM] | IC50 [6, 12] [nM] | IC50 [7, 11] [nM] | IC50 [7, 12] [nM] | inhibition vs control without cannabinoid (UGT2B4; 10 µM, codeine, screening) [%] | IC50 (UGT2B4; IC50, probe substrate codeine) [nM] | IC50 (UGT2B4; IC50,u (binding-corrected IC50), probe substrate codeine) [nM]
CCCCCc1cc(O)c2c(c1)OC(C)(C)c1ccc(C)cc1-2 [CBN, cannabinol] | 9200 ± 2100 | 780 ± 180 | 0.092 ± 0.006 | 47 | 0.12 ± 0.015 | 7500 ± 1700 | 900 ± 200 | 0.085 ± 0.005 | significant inhibition was not observed | – | – | – | – | – | – | – | –
C=C(C)[C@@H]1CCC(C)=C[C@H]1c1c(O)cc(CCCCC)cc1O [CBD, cannabidiol] | 2400 ± 660 | 90 ± 25 | – | – | – | 5500 ± 560 | 340 ± 35 | – | – | 181 | 17000 ± 3700 | 1000 ± 230 | 28000 ± 6500 | 1400 ± 330 | 66 | 5800 ± 1200 | 220 ± 45
